Assay results reported in patent publication US8987193B2, “Nisin derivatives and the use thereof” (University College Cork—National University of Ireland, Cork, priority 2008, dated 2015).
Ends that are not written are not given here.

Assays:
Assay in all cases: Deferred antagonism assay
[1] = tested on: C. sporogenes CBC5; type: cell-based, Clostridium sporogenes; set-up: key: + = Enhanced bioactivity relative to control; − = Bioactivity equal to or less than control; NA = no activity evident; settings: producing strain
[2] = tested on: L. lactis CBC7; type: cell-based; set-up: key: + = Enhanced bioactivity relative to control; − = Bioactivity equal to or less than control; NA = no activity evident; settings: producing strain
Method in brief: (§1)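 Well-diffusion testing of purified nisin variants in 0.005% acetic acid, serially diluted, 37° C overnight; AU/ml = reciprocal of last dilution with definite zone × 20. Deferred antagonism: overnight GM17 colonies overlaid with seeded soft agar (0.75%); zone = clearing diameter minus 5 mm.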

[3] = tested on: S. aureus CBC4; type: cell-based; set-up: key: + = Enhanced bioactivity relative to control; − = Bioactivity equal to or less than control; NA = no activity evident; settings: producing strain
Method in brief: as §1

[4] = tested on: L. lactis CBC8; type: cell-based; set-up: key: + = Enhanced bioactivity relative to control; − = Bioactivity equal to or less than control; NA = no activity evident; settings: producing strain
Method in brief: as §1

[5] = tested on: L. plantarum CBC6; type: cell-based, Lactobacillus plantarum; set-up: key: + = Enhanced bioactivity relative to control; − = Bioactivity equal to or less than control; NA = no activity evident; settings: producing strain
Method in brief: as §1

[6] = tested on: Listeria monocytogenes 33008; type: cell-based; set-up: key: −, no inhibition; (+), clear zone directly above the colony; +, 1-5 mm zone; ++, 6-10 mm zone; +++, <10 mm zone; settings: nisin strain; L. monocytogenes 33008
Method: (§2) Deferred antagonism assays were performed by replicating strains on GM17 or GM17 x-gal agar plates and allowing them to grow overnight before overlaying with either GM17/BHI/TS/MH agar (0.75% w/v agar) seeded with the appropriate indicator strain. Zone size was calculated as the diameter of the zone of clearing minus the diameter of bacterial growth (5 mm) For higher throughput screening of N20PXX, XM21VX, XXK22T and XXX banks deferred antagonism assays were performed by replicating strains using a 96 pin replicator (Boekel) or spotting 5 μl of a fresh overnight culture on GM17 agar plates and allowing them to grow overnight. […] Additional sets of indicators were employed to further assess/reassess the bioactivity of a number of strains. […] For well-diffusion assays molten agar was cooled to 48° C. and seeded with the appropriate indicator strain. The inoculated medium was rapidly transferred into sterile Petri plates in 50 ml volumes, allowed to solidify and dried. Wells (4.6 mm in diameter) were then made in the seeded plates. Purified nisin and mutant nisins were resuspended in 0.005% acetic acid, serially diluted, 50 μl volumes were dispensed into the aforementioned wells and the plates incubated at 37° C. overnight. Bioactivity was expressed as arbitrary units/ml (AU/ml) and calculated as the reciprocal of the highest dilution that gave a definite zone multiplied by the conversion factor (i.e. 20 when 50 μl was used) (Ryan et al., 1996).

[7] = tested on: Listeria monocytogenes 33226; type: cell-based; set-up: key: −, no inhibition; (+), clear zone directly above the colony; +, 1-5 mm zone; ++, 6-10 mm zone; +++, <10 mm zone; settings: nisin strain; L. monocytogenes 33226
Method: as §2

[8] = tested on: Listeria monocytogenes 33028; type: cell-based; set-up: key: −, no inhibition; (+), clear zone directly above the colony; +, 1-5 mm zone; ++, 6-10 mm zone; +++, <10 mm zone; settings: nisin strain; L. monocytogenes 33028
Method: as §2

[9] = tested on: Listeria monocytogenes SLCC 7194; type: cell-based; set-up: key: −, no inhibition; (+), clear zone directly above the colony; +, 1-5 mm zone; ++, 6-10 mm zone; +++, <10 mm zone; settings: nisin strain; L. monocytogenes SLCC 7194
Method: as §2

[10] = tested on: Listeria innocua CLIP; type: cell-based; set-up: key: −, no inhibition; (+), clear zone directly above the colony; +, 1-5 mm zone; ++, 6-10 mm zone; +++, <10 mm zone; settings: nisin strain
Method: as §2

[11] = tested on: Listeria monocytogenes 33115; type: cell-based; set-up: key: −, no inhibition; (+), clear zone directly above the colony; +, 1-5 mm zone; ++, 6-10 mm zone; +++, <10 mm zone; settings: nisin strain; L. monocytogenes 33115
Method: as §2

[12] = tested on: Listeria monocytogenes 33068; type: cell-based; set-up: key: −, no inhibition; (+), clear zone directly above the colony; +, 1-5 mm zone; ++, 6-10 mm zone; +++, <10 mm zone; settings: nisin strain; L. monocytogenes 33068
Method: as §2

[13] = tested on: Listeria monocytogenes N3008; type: cell-based; set-up: key: −, no inhibition; (+), clear zone directly above the colony; +, 1-5 mm zone; ++, 6-10 mm zone; +++, <10 mm zone; settings: nisin strain; L. monocytogenes N3008
Method: as §2

[14] = tested on: Listeria monocytogenes 33116; type: cell-based; settings: nisin strain; L. monocytogenes 33116
Method: as §2

[15] = tested on: Listeria monocytogenes SLCC 6793; type: cell-based; settings: nisin strain; L. monocytogenes SLCC 6793
Method: as §2

[16] = tested on: Listeria monocytogenes 33225; type: cell-based; settings: nisin strain; L. monocytogenes 33225
Method: as §2

[17] = tested on: Listeria monocytogenes F2365; type: cell-based; settings: nisin strain; L. monocytogenes F2365
Method: as §2

[18] = tested on: Listeria innocua FH2117; type: cell-based; settings: nisin strain
Method: as §2

[19] = tested on: Listeria monocytogenes 33176; type: cell-based; settings: nisin strain; L. monocytogenes 33176
Method: as §2

Substance	Bioactivity relative to control [1]	Bioactivity relative to control [2]	Bioactivity relative to control [3]	Bioactivity relative to control [4]	Bioactivity relative to control [5]	Activity score (zone) [6]	Activity score (zone) [7]	Activity score (zone) [8]	Activity score (zone) [9]	Activity score (zone) [10]	Activity score (zone) [11]	Activity score (zone) [12]	Activity score (zone) [13]	Activity score (zone) [14]	Activity score (zone) [15]	Activity score (zone) [16]	Activity score (zone) [17]	Activity score (zone) [18]	Activity score (zone) [19]
NisinA K22A (ITSISLCTPGCKTGALMGCNMATATCHCSIHVSK; not fully specified; also: lantibiotic: lanthionine rings and dehydro residues not placed; UniProt P13068 24-57, looked up, variant K22A) [nisin A derivative, hinge substitution K22A]	−	−	−	+	−	−	+ (+, 1-5 mm zone)	+ (+, 1-5 mm zone)	+ (+, 1-5 mm zone)	+ (+, 1-5 mm zone)	+ (+, 1-5 mm zone)	−	+ (+, 1-5 mm zone)	+ (+, 1-5 mm zone)	++ (++, 6-10 mm zone)	+ (+, 1-5 mm zone)	+ (+, 1-5 mm zone)	+ (+, 1-5 mm zone)	+ (+, 1-5 mm zone)
NisinA M21G (ITSISLCTPGCKTGALMGCNGKTATCHCSIHVSK; not fully specified; also: lantibiotic: lanthionine rings and dehydro residues not placed; UniProt P13068 24-57, looked up, variant M21G) [nisin A derivative, hinge substitution M21G]	+	−	+	−	−	−	−	−	−	+ (+, 1-5 mm zone)	−	−	−	+ (+, 1-5 mm zone)	++ (++, 6-10 mm zone)	+ (+, 1-5 mm zone)	+ (+, 1-5 mm zone)	+ (+, 1-5 mm zone)	+ (+, 1-5 mm zone)
NisinA M21I (ITSISLCTPGCKTGALMGCNIKTATCHCSIHVSK; not fully specified; also: lantibiotic: lanthionine rings and dehydro residues not placed; UniProt P13068 24-57, looked up, variant M21I) [nisin A derivative, hinge substitution M21I]	+	+	+	+	−	−	+ (+, 1-5 mm zone)	+ (+, 1-5 mm zone)	+ (+, 1-5 mm zone)	−	−	−	+ (+, 1-5 mm zone)	++ (++, 6-10 mm zone)	+++ (+++, <10 mm zone)	+ (+, 1-5 mm zone)	+ (+, 1-5 mm zone)	+ (+, 1-5 mm zone)	+ (+, 1-5 mm zone)
NisinA M21S (ITSISLCTPGCKTGALMGCNSKTATCHCSIHVSK; not fully specified; also: lantibiotic nisin: dehydrated residues and thioether rings not placed; UniProt P13068 24-57, looked up, variant M21S) [nisin A derivative, hinge substitution M21S]	+	−	+	+	−	+ (+, 1-5 mm zone)	+ (+, 1-5 mm zone)	++ (++, 6-10 mm zone)	+ (+, 1-5 mm zone)	+ (+, 1-5 mm zone)	(+)	+ (+, 1-5 mm zone)	++ (++, 6-10 mm zone)	++ (++, 6-10 mm zone)	+++ (+++, <10 mm zone)	++ (++, 6-10 mm zone)	++ (++, 6-10 mm zone)	+ (+, 1-5 mm zone)	++ (++, 6-10 mm zone)
